pIC50: −log10 of the molar value. Calls of active or inactive are those of the source. No cut-off for these calls is given here.
What was measured:
[1] = Inhibition of JAK-mediated IL6-induced Stat1 phosphorylation in BALB/c mouse B cells by Phospho-Flow cytometry; assay type: cell-based
[2] = Inhibition of JAK-mediated IL10-induced Stat3 phosphorylation in BALB/c mouse B cells by Phospho-Flow cytometry; assay type: cell-based
[3] = target: T1, Janus Kinase (JAK) (Homo sapiens) (UniProt P52333+P23458+O60674+P29597); assay: Inhibition of JAK-mediated interferon-gamma/anisomycin-induced Stat1 phosphorylation in human U937 cells by Phospho-Flow cytometry; assay type: cell-based; details: U-937
MAP kinase p38 = MAP kinase p38 (Homo sapiens, UniProt O15264+Q15759+Q16539+P53778); assay: Inhibition of anisomycin-induced p38 phosphorylation in human U937 cells by Phospho-Flow cytometry at 20 uM; assay type: cell-based; details: U-937
[4] = target: T1, Janus Kinase (JAK) (Homo sapiens); assay: Inhibition of JAK-mediated GM-CSF-induced Stat5 phosphorylation in human U937 cells by Phospho-Flow cytometry at 20 uM; assay type: cell-based; details: U-937
[5] = target: T1, Janus Kinase (JAK) (Homo sapiens); assay: Inhibition of JAK-mediated interferon-gamma-induced Stat1 phosphorylation in human U937 cells by Phospho-Flow cytometry at 20 uM; assay type: cell-based; details: U-937
[6] = Inhibition of JAK-mediated IL4-induced Stat5 phosphorylation in BALB/c mouse CD11b-int macrophages by Phospho-Flow cytometry
[7] = Inhibition of JAK-mediated IL10-induced Stat3 phosphorylation in BALB/c mouse CD11b-int macrophages by Phospho-Flow cytometry
[8] = Inhibition of JAK-mediated IL6-induced Stat1 phosphorylation in BALB/c mouse CD8+ T cells by Phospho-Flow cytometry; assay type: cell-based; details: T-cell
[9] = Inhibition of JAK-mediated IL4-induced Stat6 phosphorylation in BALB/c mouse CD11b-int macrophages by Phospho-Flow cytometry
[10] = Inhibition of JAK-mediated IL7-induced Stat5 phosphorylation in BALB/c mouse CD11b-int macrophages by Phospho-Flow cytometry
[11] = Inhibition of JAK-mediated IL7-induced Stat5 phosphorylation in BALB/c mouse CD4+ T cells by Phospho-Flow cytometry; assay type: cell-based; details: T-cell
[12] = Inhibition of JAK-mediated IL7-induced Stat5 phosphorylation in BALB/c mouse CD8+ T cells by Phospho-Flow cytometry; assay type: cell-based; details: T-cell
[13] = Inhibition of JAK-mediated IL6-induced Stat3 phosphorylation in BALB/c mouse CD11b-hi neutrophils by Phospho-Flow cytometry
[14] = Inhibition of JAK-mediated interferon-gamma-induced Stat1 phosphorylation in BALB/c mouse CD11b-hi neutrophils by Phospho-Flow cytometry
[15] = Inhibition of JAK-mediated IL4-induced Stat5 phosphorylation in BALB/c mouse CD8+ T cells by Phospho-Flow cytometry; assay type: cell-based; details: T-cell
[16] = Inhibition of JAK-mediated IL4-induced Stat5 phosphorylation in BALB/c mouse CD4+ T cells by Phospho-Flow cytometry; assay type: cell-based; details: T-cell
[17] = Inhibition of JAK-mediated IL4-induced Stat5 phosphorylation in BALB/c mouse CD11b-hi neutrophils by Phospho-Flow cytometry
[18] = Inhibition of JAK-mediated IL10-induced Stat3 phosphorylation in BALB/c mouse CD8+ T cells by Phospho-Flow cytometry; assay type: cell-based; details: T-cell
[19] = Inhibition of JAK-mediated IL6-induced Stat3 phosphorylation in BALB/c mouse CD11b-int macrophages by Phospho-Flow cytometry
[20] = Inhibition of JAK-mediated IL7-induced Stat5 phosphorylation in BALB/c mouse CD11b-hi neutrophils by Phospho-Flow cytometry
[21] = Inhibition of JAK-mediated IL6-induced Stat1 phosphorylation in BALB/c mouse CD11b-hi neutrophils by Phospho-Flow cytometry
[22] = Inhibition of JAK-mediated IL15-induced Stat5 phosphorylation in BALB/c mouse CD4+ T cells by Phospho-Flow cytometry; assay type: cell-based; details: T-cell
[23] = Inhibition of JAK-mediated interferon-gamma-induced Stat1 phosphorylation in BALB/c mouse B cells by Phospho-Flow cytometry; assay type: cell-based
[24] = Inhibition of JAK-mediated IL7-induced Stat5 phosphorylation in BALB/c mouse B cells by Phospho-Flow cytometry; assay type: cell-based
[25] = Inhibition of JAK-mediated interferon-gamma-induced Stat1 phosphorylation in BALB/c mouse CD11b-int macrophages by Phospho-Flow cytometry
[26] = Inhibition of JAK-mediated IL15-induced Stat5 phosphorylation in BALB/c mouse CD11b-int macrophages by Phospho-Flow cytometry
[27] = Inhibition of JAK-mediated IL15-induced Stat5 phosphorylation in BALB/c mouse CD11b-hi neutrophils by Phospho-Flow cytometry
[28] = Inhibition of JAK-mediated IL10-induced Stat3 phosphorylation in BALB/c mouse CD11b-hi neutrophils by Phospho-Flow cytometry
[29] = Inhibition of JAK-mediated IL4-induced Stat6 phosphorylation in BALB/c mouse CD8+ T cells by Phospho-Flow cytometry; assay type: cell-based; details: T-cell
[30] = Inhibition of JAK-mediated IL15-induced Stat5 phosphorylation in BALB/c mouse B cells by Phospho-Flow cytometry; assay type: cell-based
[31] = Inhibition of JAK-mediated IL6-induced Stat1 phosphorylation in BALB/c mouse CD11b-int macrophages by Phospho-Flow cytometry
[32] = Inhibition of JAK-mediated IL6-induced Stat3 phosphorylation in BALB/c mouse CD4+ T cells by Phospho-Flow cytometry; assay type: cell-based; details: T-cell
[33] = Inhibition of JAK-mediated IL6-induced Stat3 phosphorylation in BALB/c mouse B cells by Phospho-Flow cytometry; assay type: cell-based
[34] = Inhibition of JAK-mediated IL6-induced Stat3 phosphorylation in BALB/c mouse CD8+ T cells by Phospho-Flow cytometry; assay type: cell-based; details: T-cell
[35] = Inhibition of JAK-mediated IL15-induced Stat5 phosphorylation in BALB/c mouse CD8+ T cells by Phospho-Flow cytometry; assay type: cell-based; details: T-cell
[36] = Inhibition of JAK-mediated IL4-induced Stat6 phosphorylation in BALB/c mouse CD4+ T cells by Phospho-Flow cytometry; assay type: cell-based; details: T-cell
[37] = Inhibition of JAK-mediated IL4-induced Stat5 phosphorylation in BALB/c mouse B cells by Phospho-Flow cytometry; assay type: cell-based
[38] = Inhibition of JAK-mediated interferon-gamma-induced Stat1 phosphorylation in BALB/c mouse CD4+ T cells by Phospho-Flow cytometry; assay type: cell-based; details: T-cell
[39] = Inhibition of JAK-mediated IL6-induced Stat1 phosphorylation in BALB/c mouse CD4+ T cells by Phospho-Flow cytometry; assay type: cell-based; details: T-cell
[40] = Inhibition of JAK-mediated IL10-induced Stat3 phosphorylation in BALB/c mouse CD4+ T cells by Phospho-Flow cytometry; assay type: cell-based; details: T-cell

With `CC(C)(C)c1nc2c3ccc(F)cc3c3c(=O)[nH]ccc3c2[nH]1` the pIC50 [1] was > 4.70, the pIC50 [2] was < 4.70 and the Activity [3] was “Active”.
`C=C1C(=O)O[C@@H]2C[C@@H](C)[C@@H]3C=CC(=O)[C@@]3(C)[C@@H](O)[C@H]12` gave an inhibition (MAP kinase p38) of 25%, an inhibition [4] of 25% and an inhibition [5] of 25%.
For `C=C1C(=O)O[C@@H]2C[C@@]3(C)CCC[C@H](C)C3=C[C@H]12`, the inhibition (MAP kinase p38) was 25%, the inhibition [4] was 25% and the inhibition [5] was 25%.
With `CC(=O)O[C@@H]1CO[C@H]2O[C@H]3[C@@H](C(C=O)=C[C@H](O)[C@@H]4C5=C(C(C)C)CC[C@]5(C)CC[C@@]34C)[C@@]2(O)C1=O` the inhibition (MAP kinase p38) was 25%, the inhibition [4] was “Active” and the inhibition [5] was > 65%.
For `CC(=O)c1c(O)c(C)c(O)c(Cc2c(O)c3c(c(C(=O)/C=C/c4ccccc4)c2O)OC(C)(C)C=C3)c1O`, the inhibition (MAP kinase p38) was 25%, the inhibition [4] was 25% and the inhibition [5] was > 65%.
In the case of `CC(C)=CC(=O)O[C@H]1[C@H]2[C@H](OC(=O)[C@H]2C)[C@H](O)[C@@H](C)[C@@H]2C=CC(=O)[C@]21C`, the inhibition (MAP kinase p38) was 25%, the inhibition [4] was 25% and the inhibition [5] was > 65%.
With `CC(C)c1oc(=O)cc2c1[C@@H](O)[C@H]1OC(=O)[C@@]3(C)[C@@H](O)[C@H]4O[C@H]4[C@@]2(C)[C@@H]13` the inhibition (MAP kinase p38) was > 65%, the inhibition [4] was “inactive” and the inhibition [5] was “inactive”.
`CC1CC(C)(O)CC(C(O)CC2CC(=O)NC(=O)C2)C1=O` (stereo not drawn) gave an inhibition (MAP kinase p38) of 25%, an inhibition [4] of 25% and an inhibition [5] of 25%.
With `CC1OC(CC(=O)O)CC2=C1C(=O)c1c(O)cccc1C2=O` (stereo not drawn) the inhibition (MAP kinase p38) was 25%, the inhibition [4] was 25% and the inhibition [5] was > 65%.
With `CC[C@H]1CN2CCc3cc(OC)c(OC)cc3[C@@H]2C[C@@H]1C[C@H]1NCCc2c1[nH]c1ccc(O)cc21` the inhibition (MAP kinase p38) was 25%, the inhibition [4] was 25% and the inhibition [5] was > 65%.
For `CO[C@@H]1[C@@H](OC(=O)c2ccc(C)[nH]2)[C@@H](O)[C@@H](Oc2ccc3c(O)c(NC(=O)c4c[nH]c(C(=O)Nc5c(O)c6ccc(O[C@H]7OC(C)(C)[C@H](OC)[C@@H](OC(=O)c8ccc(C)[nH]8)[C@H]7O)c(C)c6oc5=O)c4C)c(=O)oc3c2C)OC1(C)C`, the inhibition (MAP kinase p38) was “inactive”, the inhibition [4] was “inactive” and the inhibition [5] was “inactive”.
With `C[C@H]1CC[C@@H]2[C@@H](C)[C@H]3[C@H](C[C@H]4[C@@H]5CC=C6C[C@@H](O[C@@H]7O[C@H](CO)[C@H](O)[C@H](O[C@@H]8O[C@H](CO)[C@@H](O)[C@H](O)[C@H]8O)[C@H]7O[C@H]7O[C@@H](C)[C@H](O)[C@@H](O)[C@H]7O)CC[C@]6(C)[C@H]5CC[C@]34C)N2C1` the inhibition (MAP kinase p38) was 25%, the inhibition [4] was 25% and the inhibition [5] was > 65%.
With `C[S+]([O-])c1ccc(-c2nc(-c3ccc(F)cc3)c(-c3ccncc3)[nH]2)cc1` (stereo not drawn) the Activity [3] was “Active”.
With `O=C1C=C2C(=CCOC2O)O1` (stereo not drawn) the inhibition (MAP kinase p38) was 25%, the inhibition [4] was 25% and the inhibition [5] was > 65%.
For `C/C=C/C1=C(Cl)C(=O)[C@H](Cl)[C@]1(O)C(=O)OC` [CRYTOSPORIOPSIN], the pIC50 [6] was > 4.70, the pIC50 [7] was > 4.70 and the pIC50 [8] was > 4.70. The pIC50 [9] was > 4.70, the pIC50 [10] was > 4.70 and the pIC50 [11] was > 4.70. For the same compound, the pIC50 [12] was > 4.70, the inhibition (MAP kinase p38) was 25% and the pIC50 [13] was > 4.70. The pIC50 [14] was > 4.70, the pIC50 [15] was > 4.70 and the pIC50 [16] was > 4.70. For the same compound, the pIC50 [17] was > 4.70, the pIC50 [18] was > 4.70 and the pIC50 [1] was > 4.70. The pIC50 [19] was > 4.70, the pIC50 [2] was > 4.70 and the pIC50 [20] was > 4.70. The pIC50 [21] was > 4.70, the pIC50 [22] was > 4.70 and the pIC50 [23] was > 4.70. For the same compound, the pIC50 [24] was > 4.70, the pIC50 [25] was > 4.70 and the pIC50 [26] was > 4.70. For the same compound, the pIC50 [27] was > 4.70, the pIC50 [28] was > 4.70 and the pIC50 [29] was > 4.70. The pIC50 [30] was > 4.70, the pIC50 [31] was > 4.70 and the inhibition [4] was “Active”. The inhibition [5] was > 65%, the pIC50 [32] was > 4.70 and the pIC50 [33] was > 4.70. For the same compound, the pIC50 [34] was > 4.70, the pIC50 [35] was > 4.70 and the pIC50 [36] was > 4.70.
For `O=Nc1c(-c2c(O)[nH]c3ccccc23)[nH]c2ccccc12` [INDIRUBIN-3-MONOXIME], the pIC50 [37] was > 4.70, the pIC50 [6] was > 4.70 and the pIC50 [7] was > 4.70. The pIC50 [8] was > 4.70, the pIC50 [9] was > 4.70 and the pIC50 [10] was > 4.70. For the same compound, the pIC50 [11] was > 4.70, the pIC50 [12] was > 4.70 and the pIC50 [38] was > 4.70. For the same compound, the pIC50 [13] was > 4.70, the pIC50 [14] was > 4.70 and the pIC50 [15] was > 4.70. The pIC50 [16] was > 4.70, the pIC50 [17] was > 4.70 and the pIC50 [18] was > 4.70. For the same compound, the pIC50 [39] was > 4.70, the pIC50 [1] was > 4.70 and the pIC50 [19] was > 4.70. The pIC50 [2] was > 4.70, the pIC50 [20] was > 4.70 and the pIC50 [21] was > 4.70. The pIC50 [22] was > 4.70, the pIC50 [23] was > 4.70 and the pIC50 [24] was > 4.70. The pIC50 [25] was > 4.70, the pIC50 [26] was > 4.70 and the pIC50 [27] was > 4.70. The pIC50 [28] was > 4.70, the pIC50 [29] was > 4.70 and the pIC50 [30] was > 4.70. For the same compound, the pIC50 [31] was > 4.70, the pIC50 [32] was > 4.70 and the pIC50 [33] was > 4.70. The pIC50 [40] was > 4.70, the pIC50 [34] was > 4.70 and the pIC50 [35] was > 4.70. The pIC50 [36] was > 4.70.
